# In publication PMC12514245, “Impaired migration and lung invasion of human melanoma by a novel small molecule targeting the transmembrane domain of death receptor p75^NTR” (EMBO Molecular Medicine, 2025):
# Where “and” joins values, the source holds several entries; their conditions need not be identical. Identical values can stand only once. Entries after “also recorded” stand apart in the source; their conditions may differ.
# Columns and labels:
# [1] = tested on: A875-shp75 melanoma xenograft; assay: Melanoma lung invasion assay, A875-shp75, delayed treatment 3 weeks after cell injection; format: in vivo, SCID mice; details: group average
# Procedure: (§1) Finally, we investigated whether delayed administration of Np75-4A22 was able to affect engraftment and growth of metastatic tumors in the lung. To this end, drug treatment (orally at 200 mg/kg) was initiated 3 weeks after intravenous injection of A875-NT or A875-shp75 cells in female SCID mice and continued for additionally 4 weekly cycles (5 days on/2 days off) as above (Fig. 8E). Metastatic spread to the lungs was monitored weekly by bioluminescent imaging of luciferase-expressing melanoma cells. […] We conclude that Np75-4A22 can be efficacious at reducing the spread and seeding of melanoma cells in the lung when administered either before or after cell implantation.
# (§2) Eight-week-old female SCID mice (Charles River Laboratories, Shrewsbury, MA, USA) were housed in groups of three to five and maintained on a 12-h light/dark schedule with a temperature of 22 °C ± 1 °C and a relative humidity of 50% ± 5%. Food and water were available ad libitum. This research study was reviewed and approved by the University of Calgary Animal Care Committee (AC22-0054) and McGill University (AUP-JGH-8269) and adheres to established ethical principles and guidelines. A875-GFPLuc (A875-NT) or A875-GFPLuc shp75 (A875-shp75) cells harvested using Puck’s EDTA were resuspended in PBS and injected intravenously into SCID mice (5 × 10^5 cells/200 μl per mouse). Np75-4A22 was dissolved in 0.5% sodium carboxymethyl cellulose (NaCMC) in reverse osmosis H2O and administered by oral gavage at 200 mg/kg/day starting one day prior to intravenous (tail vein) injection of tumor cells and continued for 3 1-week cycles (cycle: 5 days on drug, 2 days off drug). Tumor spread to the lung was monitored weekly by luciferase activity using the Xenogen IVIS-200 Optical in vivo luciferase imaging system as described previously (Lun et al, [2016]) and by immunohistochemistry (IHC) at designated time points. IHC was performed after formalin fixation, paraffin embedding and sectioning of the lungs, using a human-specific mouse polyclonal nucleolin antibody (1:500 dilution) and detected using Dako liquid DAB+ Substrate Chromogen System (Dako: k3468, California, USA) followed by a hematoxylin counterstain (Sigma, Oakville, ON, Canada). Sections were mounted and imaged on an Olympus phase contrast microscope (Olympus Life Science, Tokyo, Japan). For immunofluorescence, sections were stained with anti-human nucleolin and anti-human p75NTR antibodies (1:1000 dilution), subsequently detected with 1:200 dilutions of Alexa Fluor™ 488 Goat anti-Mouse IgG (H + L) Highly Cross-Adsorbed Secondary Antibody and Alexa Fluor™ 568 Goat anti-Rabbit IgG (H + L) Cross-Adsorbed Secondary Antibody. Sections were further stained with DAPI to detect all nuclei. Between each treatment, TBS Automation Wash Buffer (Biocare Medical TWB945M) was employed. Images were taken with LSM800 confocal microscope and ZEN system.
# [2] = tested on: A875-NT melanoma xenograft; assay: Melanoma lung invasion assay, A875-NT, delayed treatment 3 weeks after cell injection; format: in vivo, SCID mice; details: A875-NT, group average
# Procedure: as §1, §2
# [3] = biological target: T1, p75^NTR TMD (Homo sapiens, UniProt P08138); assay: AraTM assay, wild-type p75NTR TMD (GFP/OD630); format: cell-based; details: structure-activity comparison
# T1 sequence (P08138 250-275 limits assumed): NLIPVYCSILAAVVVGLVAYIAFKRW
# [4] = tested on: A875 NT cells; assay: Wound healing cell motility assay, A875 NT; format: cell-based, human; details: for Wound area, Mean / Wound area, n1-n3: 5μM Q_VD_poH; for Wound area, Mean: N=3
# Procedure: (§3) For wound healing assay, cells were grown until confluency and subjected to a wound across the cell mono-layer. Cells were then incubated with serum-free media either with DMSO or a small molecule (with or without 5 µM Q_VD_poH) and imaged at specific time-points. Cell migration is reflected as fold change in wound area over time.
# [5] = tested on: A875 melanoma cells (NT); assay: Cleaved PARP western blot (apoptosis), A875 NT; format: cell-based, human; details: Q-VD-pOH 5 µM; Div17E5 10 µM
# Procedure: One of the main biological readouts of p75^NTR activity in response to neurotrophins is the induction of caspase-mediated apoptotic cell death (Underwood and Coulson, [2008]; Friedman, [2010]; Ibáñez and Simi, [2012]).
# COS7, A875 and WM115 cell lines were cultured under standard conditions in DMEM supplemented with 10% fetal calf serum, 100 units/ml penicillin, […] streptomycin, and 2.5 mM glutamine. All cells were authenticated and tested for mycoplasma contamination. A875-NT (control) and A875 shp75 (knockdown) cell lines were described previously (Goh et al, [2018]).
# [6] = tested on: A875 shp75 cells; assay: Wound healing cell motility assay, A875 shp75; format: cell-based, human; details: 5μM Q_VD_poH; for Wound area, Mean: N=3
# Procedure: as §3
# [7] = tested on: A875 NT cells; assay: Boyden chamber chemotaxis/invasion assay, A875 NT; format: cell-based, human; details: 5μM Q_VD_pOH; for Fold change (invading cells), Mean: N=3
# Procedure: For Boyden chamber assay, Corning® BioCoat™ Matrigel® Invasion Chambers 8.0 µm PET Membrane were used (cat. no. 354480). A875 NT or WM115 cells were serum-starved for 16 h and then seeded at 60,000 cells per well in serum-free media under different conditions, including DMSO (vehicle) or small molecules Div17E5 or Np75-4A22 at different concentrations to the top chamber of the Matrigel-coated trans-well chamber. The pan-caspase inhibitor Q_VD_poH (at 5 µM) was also introduced in the top chamber in some experiments. Two different chemoattractants, NGF (at 50 ng/ml or 100 ng/ml as indicated) or 10% FBS were added to the bottom chamber. Assays were carried out for 8 h after which filters were fixed in 4% PFA and stained with DAPI. Cells that had remained on the top of the filter were gently scrapped away with a cotton tip. The filter lower side was imaged on an inverted fluorescence microscope and counted using ImageJ software (NIH).
smiles,measurement,setting,value
Cc1cccc(-c2cncc(Nc3ccc(Br)c(Cl)c3Cl)n2)c1C [4A-22],"Average Photons/second/week, wk2",[1]; wk2,9.88E+04 Photons/second
same,"Average Photons/second/week, wk3",[1]; wk3,1.46E+05 Photons/second
same,"Average Photons/second/week, wk4",[1]; wk4,1.10E+05 Photons/second
same,"Average Photons/second/week, wk5",[1]; wk5,2.77E+05 Photons/second
same,"Average Photons/second/week, wk6",[1]; wk6,4.60E+05 Photons/second
same,"Average Photons/second/week, wk7",[1]; wk7,1.10E+06 Photons/second
same,"Average Photons/second/week, wk2",[2]; wk2,77712.5 Photons/second
same,"Average Photons/second/week, wk3",[2]; wk3,189000 Photons/second
same,"Average Photons/second/week, wk4",[2]; wk4,170125 Photons/second
same,"Average Photons/second/week, wk5",[2]; wk5,304375 Photons/second
same,"Average Photons/second/week, wk6",[2]; wk6,845350 Photons/second
same,"Average Photons/second/week, wk7",[2]; wk7,3166750 Photons/second
COc1ccccc1-c1cncc(Nc2ccc([N+](=O)[O-])cc2)n1 [Np75-3A01],activity in the AraTM assay,[3],"MS_18 more potent than Np75-3A01, -3A02"
COc1cccc(-c2cncc(Nc3ccc([N+](=O)[O-])cc3)n2)c1 [Np75-3A02],activity in the AraTM assay,[3],"MS_18 more potent than Np75-3A01, -3A02"
Cc1ccccc1-c1cncc(Nc2ccc([N+](=O)[O-])cc2)n1 [Np75-3A19],activity in the AraTM assay,[3],Np75-3A21 better than -3A19 and -3A20
Cc1cccc(-c2cncc(Nc3ccc([N+](=O)[O-])cc3)n2)c1 [Np75-3A20],activity in the AraTM assay,[3],Np75-3A21 better than -3A19 and -3A20
Cc1ccc(-c2cncc(Nc3ccc([N+](=O)[O-])cc3)n2)cc1 [Np75-3A21],activity in the AraTM assay,[3],best compounds; also recorded: Np75-3A21 better than -3A19 and -3A20; also recorded: best hit from this series
O=C(Nc1ccc([N+](=O)[O-])cc1)c1cncc(-c2ccc3ccccc3c2)n1 [Np75-3A49],activity in the AraTM assay,[3],activity was lost
O=C(Nc1ccc([N+](=O)[O-])cc1)c1cncc(-c2cccc(OC3CCCC3)c2)n1 [Np75-3A51],activity in the AraTM assay,[3],activity was lost
COc1ccc(-c2cncc(Nc3ccc(Br)c(Cl)c3)n2)cc1 [Np75-3B03],activity in the AraTM assay,[3],best compound in this series; also recorded: less potent than MS_18
"CC(C)[C@H](NC(=O)c1ccc2ccccc2n1)C(=O)N[C@@H](CC(=O)O)C(=O)COc1c(F)cccc1F [Q-VD-pOH, reference compound]",rescue of Div17E5 effect on cell motility by caspase inhibitor,[4],could not be rescued
same,"Wound area, Mean",[4]; 0 hours,1.000 Fold
same,"Wound area, n1-n3",[4]; 3 hours,0.912 Fold and 1.045 Fold and 0.955 Fold
same,"Wound area, Mean",[4]; 3 hours,0.971 Fold
same,"Wound area, n1-n3",[4]; 6 hours,0.873 Fold and 1.010 Fold and 0.935 Fold
same,"Wound area, Mean",[4]; 6 hours,0.939 Fold
same,"Wound area, n1-n3",[4]; 9 hours,0.814 Fold and 0.952 Fold and 0.859 Fold
same,"Wound area, Mean",[4]; 9 hours,0.875 Fold
same,"Wound area, n1-n3",[4]; 12 hours,0.792 Fold and 0.920 Fold and 0.820 Fold
same,"Wound area, Mean",[4]; 12 hours,0.844 Fold
same,"Wound area, n1-n3",[4]; 15 hours,0.758 Fold and 0.880 Fold and 0.797 Fold
same,"Wound area, Mean",[4]; 15 hours,0.811 Fold
same,"Wound area, n1-n3",[4]; 18 hours,0.732 Fold and 0.836 Fold and 0.772 Fold
same,"Wound area, Mean",[4]; 18 hours,0.780 Fold
same,"Wound area, n1-n3",[4]; 21 hours,0.724 Fold and 0.832 Fold and 0.756 Fold
same,"Wound area, Mean",[4]; 21 hours,0.771 Fold
same,"Wound area, n1-n3",[4]; 24 hours,0.707 Fold and 0.800 Fold and 0.730 Fold
same,"Wound area, Mean",[4]; 24 hours,0.746 Fold
same,block of Div17E5-induced apoptosis (cleaved PARP),[5],could be blocked
same,"Wound area, n1-n3",[6]; 0 hours,0.942 Fold and 1.051 Fold and 1.006 Fold
same,"Wound area, Mean",[6]; 0 hours,1.000 Fold
same,"Wound area, n1-n3",[6]; 3 hours,0.980 Fold and 1.009 Fold and 0.979 Fold
same,"Wound area, Mean",[6]; 3 hours,0.989 Fold
same,"Wound area, n1-n3",[6]; 6 hours,0.990 Fold and 1.014 Fold and 0.952 Fold
same,"Wound area, Mean",[6]; 6 hours,0.985 Fold
same,"Wound area, n1-n3",[6]; 9 hours,0.935 Fold and 0.937 Fold and 0.886 Fold
same,"Wound area, Mean",[6]; 9 hours,0.919 Fold
same,"Wound area, n1-n3",[6]; 12 hours,0.939 Fold and 0.913 Fold and 0.875 Fold
same,"Wound area, Mean",[6]; 12 hours,0.909 Fold
same,"Wound area, n1-n3",[6]; 15 hours,0.891 Fold and 0.870 Fold and 0.844 Fold
same,"Wound area, Mean",[6]; 15 hours,0.869 Fold
same,"Wound area, n1-n3",[6]; 18 hours,0.856 Fold and 0.835 Fold and 0.800 Fold
same,"Wound area, Mean",[6]; 18 hours,0.830 Fold
same,"Wound area, n1-n3",[6]; 21 hours,0.849 Fold and 0.778 Fold and 0.767 Fold
same,"Wound area, Mean",[6]; 21 hours,0.798 Fold
same,"Wound area, n1-n3",[6]; 24 hours,0.815 Fold and 0.772 Fold and 0.761 Fold
same,"Wound area, Mean",[6]; 24 hours,0.783 Fold
same,"Fold change (invading cells), n1-n3",[7]; With NGF,2.27 Fold and 1.89 Fold and 2.17 Fold
same,"Fold change (invading cells), Mean",[7]; With NGF,2.11 Fold
same,"Fold change (invading cells), n1-n3",[7]; without NGF,1.22 Fold and 1.02 Fold and 1.42 Fold
same,"Fold change (invading cells), Mean",[7]; without NGF,1.22 Fold
